Patent publication US8247211B2, “Glycopeptide antibiotics” (American Cyanamid Company, priority 2001, dated 2012)
Converted amounts (≈) assume the structure as drawn.

Tests used:
[1] = Anatomic pathology (heart and kidney histopathology) in mice; assay type: in vivo, CD-1 mice; conditions: 20 mg/kg intravenously daily for 9 days, microscopic histopathology on day 10
Outline: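 Juvenile CD-1 mice (20 days old; 5 vehicle, 5 treated) received glycopeptide antibiotic 20 mg/kg i.v. daily for 9 days. Necropsied tissues formalin-fixed, paraffin-embedded, H&E stained and examined microscopically; findings graded slight to severe versus controls.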

[2] = tested on: Staphylococcus aureus-SMITH (GC 4543); test: Acute lethal infection in mice (ED50); assay type: in vivo; conditions: female CD-1 mice, intraperitoneal challenge, intravenous dose 30 min. after infection, 7 day survival ratios
Outline: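 Median effective dose is calculated from 7-day survival ratios pooled across three separate tests. Mice (female CD-1) receive an intraperitoneal bacterial challenge in broth or hog gastric mucin, then intravenous drug 30 min later, five animals per dose level.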

Staphylococcus sp. = test: In vitro antibacterial evaluation: minimum inhibitory concentration (MIC), broth dilution method; assay type: cell-based; conditions: 18 hours at 35° C.
Outline: (§1)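 Following NCCLS approved standard M7-A2, compounds are serially diluted from 64 to 0.06 μg/mL in Muller-Hinton II […] and inoculated at 5×10^5 CFU/mL; the MIC is the minimum concentration at which growth is inhibited.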

Streptococcus sp. = test: as above; assay type: cell-based; conditions: 18 hours at 35° C.
Outline: as §1

Enterococcus sp. = test: as above; assay type: cell-based; conditions: 18 hours at 35° C.
Outline: as §1

Escherichia coli [3] = test: as above; assay type: cell-based; conditions: broth dilution, 18 hours at 35° C.
Escherichia coli [4] = test: as above; assay type: cell-based; conditions: 18 hours at 35° C.
Outline: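 NCCLS M7-A2 broth dilution with Mueller-Hinton II, testing 64-0.06 μg/mL antibiotic against 5×10^5 CFU/mL inocula. Test strains include recent methicillin-, penicillin- or vancomycin-resistant clinical isolates. MIC is the lowest concentration preventing growth.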

[5] = broth dilution, inoculum 5×10^5 CFU/mL

Cc1ccc(Oc2cccc(-c3nc4cc(CC5NC(=O)C(C(C)c6ccccc6)NC(=O)CNC(=O)C(CO)NC(=O)C(C(O)C6CNC(=N)N6C6OC(CO)C(O)C(O)C6O)NC(=O)C(C(O)C6CNC(=N)N6)NC5=O)ccc4o3)c2)cc1 (stereo not drawn) [Example 28]
Anatomical Pathology (Day 10), Heart [1]: 0 | Anatomical Pathology (Day 10), Kidney [1]: 0 | median effective dose (ED50), Staphylococcus aureus-SMITH (GC 4543) [2]: 8 mg/kg | MIC Staphylococcus aureus-SMITH (GC 4543) (Staphylococcus sp.; strain SMITH GC 4543, broth dilution): 4 µg/mL (≈ 3.39 µM) | MIC Streptococcus agalactiae (GC 4564) (Streptococcus sp.; Streptococcus agalactiae (GC 4564), broth dilution): 4 µg/mL (≈ 3.39 µM) | MIC Streptococcus pneumoniae (ATCC 6301) (Streptococcus sp.; Streptococcus pneumoniae (ATCC 6301), broth dilution): 4 µg/mL (≈ 3.39 µM) | MIC Streptococcus pneumoniae (GC 1894) (Streptococcus sp.; Streptococcus pneumoniae (GC 1894), broth dilution): 4 µg/mL (≈ 3.39 µM) | MIC Streptococcus pneumoniae (GC 4565) (Streptococcus sp.; Streptococcus pneumoniae (GC 4565), broth dilution): 4 µg/mL (≈ 3.39 µM) | MIC Streptococcus pyogenes (GC 4563) (Streptococcus sp.; Streptococcus pyogenes (GC 4563), broth dilution): 1 µg/mL (≈ 0.849 µM) | MIC Streptococcus agalactiae (GC 4564) (Streptococcus sp.; broth dilution): 4 µg/mL (≈ 3.39 µM) | MIC Streptococcus pneumoniae (ATCC 6301) (Streptococcus sp.; broth dilution): 4 µg/mL (≈ 3.39 µM) | MIC Streptococcus pneumoniae (GC 1894) (Streptococcus sp.; broth dilution): 4 µg/mL (≈ 3.39 µM) | MIC Streptococcus pneumoniae (GC 4565) (Streptococcus sp.; broth dilution): 4 µg/mL (≈ 3.39 µM) | MIC Streptococcus pyogenes (GC 4563) (Streptococcus sp.; broth dilution): 1 µg/mL (≈ 0.849 µM) | MIC Enterococcus avium (GC 4558) (Enterococcus sp.; Enterococcus avium (GC 4558), broth dilution): 4 µg/mL (≈ 3.39 µM) | MIC Enterococcus faecalis (ATCC 29212) (Enterococcus sp.; Enterococcus faecalis (ATCC 29212), broth dilution): 8 µg/mL (≈ 6.79 µM) | MIC Enterococcus faecalis (GC 2242) (Enterococcus sp.; Enterococcus faecalis (GC 2242), broth dilution): 4 µg/mL (≈ 3.39 µM) | MIC Enterococcus faecalis (GC 2691) (Enterococcus sp.; Enterococcus faecalis (GC 2691), broth dilution): 8 µg/mL (≈ 6.79 µM) | MIC Enterococcus faecalis (GC 3059) (Enterococcus sp.; Enterococcus faecalis (GC 3059), broth dilution): 8 µg/mL (≈ 6.79 µM) | MIC Enterococcus faecalis (GC 4552) (Enterococcus sp.; Enterococcus faecalis (GC 4552), broth dilution): 8 µg/mL (≈ 6.79 µM) | MIC Enterococcus faecalis (GC 4553) (Enterococcus sp.; Enterococcus faecalis (GC 4553), broth dilution): 4 µg/mL (≈ 3.39 µM) | MIC Enterococcus faecalis (GC 4554) (Enterococcus sp.; Enterococcus faecalis (GC 4554), broth dilution): 8 µg/mL (≈ 6.79 µM) | MIC Enterococcus faecalis (GC 6189) (Enterococcus sp.; Enterococcus faecalis (GC 6189), broth dilution): 8 µg/mL (≈ 6.79 µM) | MIC Enterococcus faecium (GC 2243) (Enterococcus sp.; Enterococcus faecium (GC 2243), broth dilution): 8 µg/mL (≈ 6.79 µM) | MIC Enterococcus faecium (GC 4556) (Enterococcus sp.; Enterococcus faecium (GC 4556), broth dilution): 8 µg/mL (≈ 6.79 µM) | MIC Enterococcus faecium (GC 4557) (Enterococcus sp.; Enterococcus faecium (GC 4557), broth dilution): 4 µg/mL (≈ 3.39 µM) | MIC Enterococcus avium (GC 4558) (Enterococcus sp.; broth dilution): 4 µg/mL (≈ 3.39 µM) | MIC Enterococcus faecalis (ATCC 29212) (Enterococcus sp.; broth dilution): 8 µg/mL (≈ 6.79 µM) | MIC Enterococcus faecalis (GC 2242) (Enterococcus sp.; broth dilution): 4 µg/mL (≈ 3.39 µM) | MIC Enterococcus faecalis (GC 2691) (Enterococcus sp.; broth dilution): 8 µg/mL (≈ 6.79 µM) | MIC Enterococcus faecalis (GC 3059) (Enterococcus sp.; broth dilution): 8 µg/mL (≈ 6.79 µM) | MIC Enterococcus faecalis (GC 4552) (Enterococcus sp.; broth dilution): 8 µg/mL (≈ 6.79 µM) | MIC Enterococcus faecalis (GC 4553) (Enterococcus sp.; broth dilution): 4 µg/mL (≈ 3.39 µM) | MIC Enterococcus faecalis (GC 4554) (Enterococcus sp.; broth dilution): 8 µg/mL (≈ 6.79 µM) | MIC Enterococcus faecalis (GC 6189) (Enterococcus sp.; broth dilution): 8 µg/mL (≈ 6.79 µM) | MIC Enterococcus faecium (GC 2243) (Enterococcus sp.; broth dilution): 8 µg/mL (≈ 6.79 µM) | MIC Enterococcus faecium (GC 4556) (Enterococcus sp.; broth dilution): 8 µg/mL (≈ 6.79 µM) | MIC Enterococcus faecium (GC 4557) (Enterococcus sp.; broth dilution): 4 µg/mL (≈ 3.39 µM) | MIC Escherichia coli (ATCC 25922) (Escherichia coli [3]): 64 µg/mL (≈ 54.3 µM) | MIC Escherichia coli (GC 4559) (Escherichia coli [3]): 64 µg/mL (≈ 54.3 µM) | MIC Escherichia coli (GC 4560) (Escherichia coli [3]): 8 µg/mL (≈ 6.79 µM)

COc1ccc2cc(COC3C(CO)OC(OC4C(CO)OC(Oc5ccc(CC6NC(=O)C(C(C)c7ccccc7)NC(=O)CNC(=O)C(CO)NC(=O)C(CC7CNC(=N)N7C7OC(CO)C(O)C(O)C7O)NC(=O)C(CC7CNC(=N)N7)NC6=O)cc5)C(O)C4O)C(O)C3O)ccc2c1 (stereo not drawn) [Example 245a, Cyclo[3-(2-iminoimidazolidin-4-yl)alanyl-3-(3-hexopyranosyl-2-iminoimidazolidin-4-yl)-alanylserylglycyl-β-methylphenylalanyl-O-[4-O-[4-O-[(6-methoxy-2-naphthyl)methyl]-hexopyranosyl]hexopyranosyl]tyrosyl]]
Anatomical Pathology (Day 10), Heart [1]: + | Anatomical Pathology (Day 10), Kidney [1]: +++ | median effective dose (ED50), Staphylococcus aureus-SMITH (GC 4543) [2]: 1 mg/kg | MIC Coagulase Negative Staphylococcus (GC 4547) (Staphylococcus sp.; Coagulase Negative Staphylococcus (GC 4547)): 2 µg/mL (≈ 1.4 µM) | MIC Coagulase Negative Staphylococcus (GC 4548) (Staphylococcus sp.; Coagulase Negative Staphylococcus (GC 4548)): 1 µg/mL (≈ 0.698 µM) | MIC Coagulase Negative Staphylococcus (GC 4549) (Staphylococcus sp.; Coagulase Negative Staphylococcus (GC 4549)): 0.5 µg/mL (≈ 0.349 µM) | MIC Coagulase Negative Staphylococcus (GC 4551) (Staphylococcus sp.; Coagulase Negative Staphylococcus (GC 4551)): 2 µg/mL (≈ 1.4 µM) | MIC Coagulase Negative Staphylococcus (GC 6257) (Staphylococcus sp.; Coagulase Negative Staphylococcus (GC 6257)): 1 µg/mL (≈ 0.698 µM) | MIC Staphylococcus aureus (ATCC 29213) (Staphylococcus sp.; Staphylococcus aureus (ATCC 29213)): 2 µg/mL (≈ 1.4 µM) | MIC Staphylococcus aureus (GC 1131) (Staphylococcus sp.; Staphylococcus aureus (GC 1131)): 4 µg/mL (≈ 2.79 µM) | MIC Staphylococcus aureus (GC 3051) (Staphylococcus sp.; Staphylococcus aureus (GC 3051)): 2 µg/mL (≈ 1.4 µM) | MIC Staphylococcus aureus (GC 3053) (Staphylococcus sp.; Staphylococcus aureus (GC 3053)): 2 µg/mL (≈ 1.4 µM) | MIC Staphylococcus aureus (GC 4541) (Staphylococcus sp.; Staphylococcus aureus (GC 4541)): 2 µg/mL (≈ 1.4 µM) | MIC Staphylococcus aureus (GC 4542) (Staphylococcus sp.; Staphylococcus aureus (GC 4542)): 2 µg/mL (≈ 1.4 µM) | MIC Staphylococcus aureus (GC 4544) (Staphylococcus sp.; Staphylococcus aureus (GC 4544)): 2 µg/mL (≈ 1.4 µM) | MIC Staphylococcus aureus (GC 4545) (Staphylococcus sp.; Staphylococcus aureus (GC 4545)): 2 µg/mL (≈ 1.4 µM) | MIC Staphylococcus aureus-SMITH (GC 4543) (Staphylococcus sp.; Staphylococcus aureus-SMITH (GC 4543)): 2 µg/mL (≈ 1.4 µM) | MIC Staphylococcus haemolyticus (GC 4546) (Staphylococcus sp.; Staphylococcus haemolyticus (GC 4546)): 1 µg/mL (≈ 0.698 µM) | MIC Streptococcus agalactiae (GC 4564) (Streptococcus sp.; Streptococcus agalactiae (GC 4564)): 1 µg/mL (≈ 0.698 µM) | MIC Streptococcus pneumoniae (ATCC 6301) (Streptococcus sp.; Streptococcus pneumoniae (ATCC 6301)): 0.5 µg/mL (≈ 0.349 µM) | MIC Streptococcus pneumoniae (GC 1894) (Streptococcus sp.; Streptococcus pneumoniae (GC 1894)): <0.12 µg/mL | MIC Streptococcus pneumoniae (GC 4565) (Streptococcus sp.; Streptococcus pneumoniae (GC 4565)): 1 µg/mL (≈ 0.698 µM) | MIC Streptococcus pyogenes (GC 4563) (Streptococcus sp.; Streptococcus pyogenes (GC 4563)): 1 µg/mL (≈ 0.698 µM) | MIC Streptococcus agalactiae (GC 4564) (Streptococcus sp.; [5]): 1 µg/mL (≈ 0.698 µM) | MIC Streptococcus pneumoniae (ATCC 6301) (Streptococcus sp.; [5]): 0.5 µg/mL (≈ 0.349 µM) | MIC Streptococcus pneumoniae (GC 1894) (Streptococcus sp.; [5]): <0.12 µg/mL | MIC Streptococcus pneumoniae (GC 4565) (Streptococcus sp.; [5]): 1 µg/mL (≈ 0.698 µM) | MIC Streptococcus pyogenes (GC 4563) (Streptococcus sp.; [5]): 1 µg/mL (≈ 0.698 µM) | MIC Enterococcus avium (GC 4558) (Enterococcus sp.; Enterococcus avium (GC 4558)): 4 µg/mL (≈ 2.79 µM) | MIC Enterococcus faecalis (ATCC 29212) (Enterococcus sp.; Enterococcus faecalis (ATCC 29212)): 8 µg/mL (≈ 5.58 µM) | MIC Enterococcus faecalis (GC 2242) (Enterococcus sp.; Enterococcus faecalis (GC 2242)): 4 µg/mL (≈ 2.79 µM) | MIC Enterococcus faecalis (GC 2691) (Enterococcus sp.; Enterococcus faecalis (GC 2691)): 8 µg/mL (≈ 5.58 µM) | MIC Enterococcus faecalis (GC 3059) (Enterococcus sp.; Enterococcus faecalis (GC 3059)): 4 µg/mL (≈ 2.79 µM) | MIC Enterococcus faecalis (GC 4552) (Enterococcus sp.; Enterococcus faecalis (GC 4552)): 8 µg/mL (≈ 5.58 µM) | MIC Enterococcus faecalis (GC 4553) (Enterococcus sp.; Enterococcus faecalis (GC 4553)): 4 µg/mL (≈ 2.79 µM) | MIC Enterococcus faecalis (GC 4554) (Enterococcus sp.; Enterococcus faecalis (GC 4554)): 8 µg/mL (≈ 5.58 µM) | MIC Enterococcus faecalis (GC 6189) (Enterococcus sp.; Enterococcus faecalis (GC 6189)): 8 µg/mL (≈ 5.58 µM) | MIC Enterococcus faecium (GC 2243) (Enterococcus sp.; Enterococcus faecium (GC 2243)): 4 µg/mL (≈ 2.79 µM) | MIC Enterococcus faecium (GC 4556) (Enterococcus sp.; Enterococcus faecium (GC 4556)): 4 µg/mL (≈ 2.79 µM) | MIC Enterococcus faecium (GC 4557) (Enterococcus sp.; Enterococcus faecium (GC 4557)): 2 µg/mL (≈ 1.4 µM) | MIC Enterococcus faecalis (GC 2242) (Enterococcus sp.; [5]): 4 µg/mL (≈ 2.79 µM) | MIC Enterococcus faecalis (GC 2691) (Enterococcus sp.; [5]): 8 µg/mL (≈ 5.58 µM) | MIC Enterococcus faecalis (GC 3059) (Enterococcus sp.; [5]): 4 µg/mL (≈ 2.79 µM) | MIC Escherichia coli (ATCC 25922) (Escherichia coli [4]; Escherichia coli (ATCC 25922)): 32 µg/mL (≈ 22.3 µM) | MIC Escherichia coli (GC 4559) (Escherichia coli [4]; Escherichia coli (GC 4559)): 32 µg/mL (≈ 22.3 µM) | MIC Escherichia coli (GC 4560) (Escherichia coli [4]; Escherichia coli (GC 4560)): 2 µg/mL (≈ 1.4 µM)
